Counter-ions that a name gives are not always drawn.
What was measured:
[1] = biological target: T1, Tubulin (Sus scrofa, UniProt P02550+P02554); assay: Assessment of the inhibition of tubulin polymerization (turbidimetry); format: biochemical, pig; conditions: tubulin 10 μM, turbidity at 350 nm, 37° C.
T1 construct: Tubulin is purified from pig brains according to the published methods; from tissue; host or cells: pig brain
Description: Tubulin is purified from pig brains according to the published methods (Shelanski et al., 1973, Proc. Natl, Acad. Sci. USA, 70, 765-768. Weingarten et al., 1975, Proc. Natl, Acad. Sci. USA, 72, 1858-1862). Briefly, the brains are ground and centrifuged in an extraction buffer. The tubulin, contained in the extract supernatant, is subjected to two successive cycles of polymerization at 37° C. and depolymerization at 4° C., before being separated from the MAPs (Microtubule Associated Proteins) by chromatography on a phosphocellulose P11 column (Whatman). The tubulin thus isolated is more than 95% pure. It is stored in a buffer known as RB/2 30% glycerol, the composition of which is MES-NaOH [2-(N-morpholino)ethanesulfonic acid] 50 mM, pH 6.8; MgCl2 0.25 mM; EGTA 0.5 mM; 30% glycerol (v/v), GTP (guanosine 5′-triphosphate) 0.2 mM.
The polymerization of the tubulin into microtubules is monitored by turbidimetry as follows; the tubulin is adjusted to a concentration of 10 μM (1 mg/ml) in the RB/2 30% glycerol buffer, to which is added 1 mM GTP and 6 mM MgCl2. The polymerization is initiated by increasing the temperature from 6° C. to 37° C. in a cuvette with a 1 cm optical pathlength, placed in a Uvikon 931 spectrophotometer (Kontron) equipped with a thermostatically-regulated cuvette holder. The increase in the turbidity of the solution is monitored at 350 nm.
The products are dissolved at 10 mM in DMSO and added at variable concentrations (0.5 to 10 μM) to the tubulin solution before polymerization. The IC50 value is defined as the concentration of product which inhibits 50% of the rate of polymerization. A product whose IC50 value is less than or equal to 3 μM is considered as very active.

[2] = test system: HDMEC cells; assay: Detachment effect on HDMEC endothelial cells; format: cell-based, Human; conditions: 1 μM, treatment for two hours
Description: A test to determine the detachment of endothelial cells was established in order to select the products on the basis of their “in vitro” activity. This test for determining the endothelial cell detachment is characterized in that the endothelial cells, inoculated in plates which are coated at the bottom with a binder, e.g., chosen from gelatin, fibronectin or vitronectin, after culturing, are supplemented with a medium containing the test compound, and the cells are then labeled with a fluorescent substance, the cells which become detached are removed by washing and the fluorescence of the remaining cells is counted in a fluorimeter.
This test consists in measuring the detachment of endothelial cells cultured on substrates based on a binder, e.g., chosen from fibronectin, vitronectin and gelatin. One day after inoculating the cells in plates containing 96 wells, for example, the culture medium is replaced with a medium containing the test compound in the absence of serum. The same preparation is prepared six times at three different concentrations ([…]) and the control without addition of antivascular product is prepared six times. After treatment for two hours with the test substance, the cells are labeled with calcein-AM (1.6 μg/ml) in a culture medium supplemented with 0.1% BSA. The cells which become detached are removed by washing with the culture medium containing 0.1% bovine serum albumin; 100 μl of medium are added to each well. The fluorescence of the remaining cells is counted in a fluorimeter. The data obtained are expressed relative to the control (untreated cells).
(§1) The assessment of the detachment of the endothelial cells in vitro is determined in the following way. HDMEC cells (Human Dermal Microvascular Endothelial Cells, Promocell, c-122102) are cultured in an ECGM-MV medium containing 5% fetal calf serum, growth factors (EGF 10 ng/ml, hydrocortisone 1 μg/ml, 0.4% growth supplement with heparin) and antibiotics (amphotericin 50 ng/ml, gentamicin 50 μg/ml). For the detachment test, the HDMECs are inoculated at a rate of 5 000 cells in clear-bottomed 96-well plates (Costar) precoated with fibronectin (10 μg/ml) or vitronectin (1 μg/ml) or gelatin. Twenty-four hours later, the culture medium is replaced with 0.1% BSA ECGM-MV medium containing the indicated products. The test concentrations are 0.1-0.3 and 1 μM for each product. After treatment for two hours, the cells are labeled for 1 hour with calcein (1.6 μg/ml, Molecular Probes) in 0.1% BSA ECGM-MV medium. The detached cells are then removed by washing with 0.1% BSA ECGM-MV medium; 100 μl of medium are added to each well. The fluorescence of the cells which remain attached to the substratum of the well is counted using a fluorimeter, Spectrafluor Plus (Tecan, excitation at 485 nm, and emission at 535 nm). The data are the average of six different samples and are expressed as a percentage of the control (untreated cells).
A cell detachment effect of greater than or equal to 15% is considered as significant.
as §1, with “(amphotericine” for “(amphotericin”, “The detached cells are then removed by washing with 0.1% BSA ECGM-MV medium; 100 μl of medium are added to each well. The fluorescence of the cells which remain attached to the substratum of the well is counted using a fluorimeter, Spectrafluor Plus (Tecan, excitation at 485 nm, and emission at 535 nm). The data are the average of six different samples and are expressed as a percentage of the control (untreated cells).” left out

[3] = test system: C51 murine adenocarcinoma; assay: Assessment of the tumor necrosis in vivo; conditions: intravenous injection, 24 hours after treatment, female BALB/c mice
Description: Mice are bred by IFFA-CREDO (Domaine des Oncins, 69210 L'Arbresle, France) from a race obtained by Jackson Laboratories, Bar Harbor, Me., USA, or by Charles River France (76410 St Aubin les Elbeuf, France) from a race obtained by Charles River, USA. The mice initially weigh more than 18 g at the start of the test. They have free access to food (UAR reference 113, Villemoisson, 91160 Epinay sur Orge, France) and water.
The tumors used are currently transplanted in our laboratories. All these tumors are at the Frederick Cancer Research Facility (Frederick, Md., USA) in the frozen tumor deposit of the National Cancer Institute (NCl) or at the American Type Culture Collection (ATCC, Rockville, Md., USA).
The tumor transplantation techniques, the chemotherapy and the data analysis are presented in detail (Corbett et al. 1982a; Corbett et al., 1982b).
To summarize, the animals required for an experiment are assembled and implanted bilaterally on day 0 (zero).
The growth of the solid tumors develops freely up to the desired size. The mice are then treated by intravenous injection of a test compound in solution.
The sampling of tumors is usually (but not necessarily) carried out 24 hours after the treatment.
The mice are killed by […]. The implanted tumors, along with the skin covering them and the neighboring tissues, are collected and stored in 10% formaldehyde (v/v) (Carlo Erba, Val de Reuil, France).
The samples are then treated, sectioned, stained with hematoxylin, eosin and saffron yellow, and are then examined […]. The tumor necrosis (necrosis±degeneration) is assessed microscopically using a scale of magnitude from 0 to 5:
The values assigned to the tumor necrosis 24 hours after administration of the test compound correspond solely to a necrosis dependent on the product which may be differentiated with certainty from any existing necrosis arising from the experiment.
The necrosis due to the experiment was assessed on an untreated control.
The tumor model is a C51 murine adenocarcinoma. This colon tumor is a grade III mucous colon […]. It is maintained by serial subcutaneous passages every 18 days in female BALB/c mice. The experiments were carried out on female BALB/c mice.

[4] = test system: HDMEC; assay: Inhibition of cell proliferation, HDMEC; format: cell-based; conditions: Homo sapiens

T1 sequence (P02550 whole entry): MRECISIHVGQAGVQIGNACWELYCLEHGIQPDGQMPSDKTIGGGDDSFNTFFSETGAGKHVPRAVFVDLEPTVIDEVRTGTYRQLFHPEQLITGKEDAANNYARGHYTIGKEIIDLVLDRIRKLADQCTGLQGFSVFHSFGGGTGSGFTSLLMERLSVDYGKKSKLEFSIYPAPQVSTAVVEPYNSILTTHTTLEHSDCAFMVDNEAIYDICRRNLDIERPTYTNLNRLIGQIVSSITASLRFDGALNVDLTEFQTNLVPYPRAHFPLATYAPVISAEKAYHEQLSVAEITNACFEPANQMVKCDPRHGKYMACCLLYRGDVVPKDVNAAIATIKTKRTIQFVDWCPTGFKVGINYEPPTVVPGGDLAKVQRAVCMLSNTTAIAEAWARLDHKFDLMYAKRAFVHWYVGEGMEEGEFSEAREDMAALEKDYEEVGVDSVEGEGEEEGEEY
T1 sequence (P02554 whole entry): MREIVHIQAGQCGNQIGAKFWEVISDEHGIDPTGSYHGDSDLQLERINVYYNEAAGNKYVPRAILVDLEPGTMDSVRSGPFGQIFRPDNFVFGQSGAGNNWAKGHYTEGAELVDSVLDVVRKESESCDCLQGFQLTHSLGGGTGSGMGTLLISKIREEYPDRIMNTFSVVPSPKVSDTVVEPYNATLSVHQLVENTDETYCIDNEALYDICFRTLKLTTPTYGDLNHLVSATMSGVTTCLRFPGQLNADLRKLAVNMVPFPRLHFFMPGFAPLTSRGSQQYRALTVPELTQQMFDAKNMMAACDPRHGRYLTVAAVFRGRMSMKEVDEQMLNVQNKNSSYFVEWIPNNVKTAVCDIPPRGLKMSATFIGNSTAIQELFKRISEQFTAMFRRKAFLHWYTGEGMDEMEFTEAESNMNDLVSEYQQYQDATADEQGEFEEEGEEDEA

IC50 [1]	melting point	Structure (SMILES)	Percentage of detachment of HDMEC cells induced with the compound at a concentration of 1 μM [2]	C51 colon tumor necrosis in vivo (grade) ([3]; 50 mg/kg)	IC50 [4]	C51 colon tumor necrosis in vivo (grade) ([3]; 25 mg/kg)
800 nM		COc1cc(C(=O)/C(C)=C/c2ccc3c(c2)CCN3C)cc(OC)c1OC [Example 6, E-2-Methyl-3-(1-methyl-2,3-dihydro-1-H-indol-5-yl)-1-(3,4,5-trimethoxyphenyl)propenone]	28%	Grade 5 at 50 (5=large, >75%)	17 to 20 nM	
		COc1ccc(C=C(C)C(=O)c2cc(OC)c(OC)c(OC)c2)cc1NC(=O)[C@@H](N)CCCCN.Cl.Cl [Example 10, (S)-2,6-Diaminohexanoic acid {2-methoxy-5-[2-methyl-3-oxo-3-(3,4,5-trimethoxyphenyl)propenyl]-phenyl}amide dihydrochloride]	36%		207 to 225 nM	Grade 5 at 25 (5=large, >75%)
800 nM	140 °C	COc1cc(C(=O)/C(C)=C/c2ccc3[nH]ccc3c2)cc2c1OCO2 [Example 17, E-2-Methyl-3-(1-H-indol-5-yl)-1-(3-methoxy-4,5-methylenedioxyphenyl)propenone]				
2000 nM	118 °C	COc1cc(C(=O)/C(C)=C/c2ccc3c(ccn3CCN(C)C)c2)cc2c1OCO2 [Example 18, E-2-Methyl-3-[1-(2-dimethylaminoethyl)-1-H-indol-5-yl]-1-(3-methoxy-4,5-methylenedioxyphenyl)propenone]				

Structure (SMILES)	IC50 [1]	melting point	Percentage of detachment of HDMEC cells induced with the compound at a concentration of 1 μM [2]	C51 colon tumor necrosis in vivo (grade) ([3]; 50 mg/kg)	IC50 [4]	C51 colon tumor necrosis in vivo (grade) ([3]; 25 mg/kg)
COc1ccc(/C=C(\C)C(=O)c2cc(OC)c(OC)c(OC)c2)cc1NC(=O)CN [Example 14, Aminoacetic acid {2-methoxy-5-[2-methyl-3-oxo-3-(3,4,5-trimethoxyphenyl)propenyl]phenyl}amide hydrochloride]	25000 nM		36%		10 nM	Grade 5 at 25 (5=large, >75%)

Source: US20030153611A1, “1,3-Diarylprop-2-en-1-ones, compositions containing them and use thereof” (AVENTIS PHARMA S.A., priority 2001, published 2003)
